Where two headings read alike, the source gives them in different places.
Key:
[1] = tested on: AMPK phosphorylation (AdipoR1 signaling) in MDA-MB-231 cells; test: Western blot of AMPK phosphorylation in MDA-MB-231 cells; assay type: cell-based, human; settings: MDA-MB-231 cells treated at IC50 concentration for 6 h
Procedure: (§1) Cells were grown to 80% confluence, harvested and aliquoted into 100 mm dishes in serum free media. Cells were allowed to attach overnight and then the serum free media was removed and then cells were washed in PBS twice. Different doses of compounds were prepared in the normal media and added to different dishes for an additional 6 h. Cells were washed 3 times with ice-cold PBS and cell lysates were prepared by scraping cells into lysis buffer A (RIPA buffer, 2 mM dithiothreitol […], 1×Halt protease inhibitor cocktail (Thermo scientific), and 1×Halt phosphatase inhibitor cocktail (Thermo scientific)). The cells were allowed to swell on ice (5 min), after which the homogenate was centrifuged. The supernatants were transferred to fresh tubes and protein concentrations were determined using the Bio-Rad protein assay (Bio-Rad Laboratories, Inc.) per manufacturer’s instructions. Aliquots of the cell lysates were stored at −80°C.
(§2) Equal amounts of total protein (50 µg) were subjected to electrophoresis (10% tris-HCl, 1.0 mm gels) and transferred to nitrocellulose membranes. Membranes were blocked in TBS containing 0.05% Tween 20 (TBST) and 5% nonfat milk or 5% BSA for 1 hour at room temperature. Appropriately diluted primary antibodies were incubated in TBST/5% nonfat milk or TBST/5% BSA for 2 h at room temperature or overnight at 4 °C. Membranes were washed in TBST three times for 15 min each. Appropriately diluted secondary antibodies were incubated in superblock blocking buffers (Thermo Scientific) for 1 h at room temperature. Membranes were washed in TBST three times for 15 min. Proteins were detected by Amersham™ ECL plus western blotting detection system (GE healthcare). The following antibodies were used: anti-AdipoR1 M18, anti-AdipoR2 C12 (Santa Cruz Biotechnology, Santa Cruz, CA), anti-p-AMPKα(T172), anti-AMPKα, and anti-β-actin (Cell Signaling, Danvers, MA).
(§3) It is well established that adiponectin activates AMPK and p38 MAPK through AdipoR1 or PPARα through AdipoR2 to mediate its downstream signaling cascades, [9], [12], [14]. […] The levels of phosphorylation of AMPK and phosphorylation of PPARα were examined and the relative expression levels of the phospho-protein to the total expression of protein levels were quantified using ImageJ software (NIH) ( Fig. 3 ).
(§4) Figure 3 Effects of hit compounds on adiponectin receptor signaling pathways. […] A total 50 µg of cell lysate was loaded to each lane. Western blot was performed follow the protocol in materials and methods section.

AdipoR1 = biological target: T1, AdipoR1 (Homo sapiens, UniProt Q96A54); test: Competitive FP assay, displacement of probe 1 from AdipoR1; assay type: binding; settings: 2 µM receptor, 100 nM probe 1, 30 min, 25°C
T1 construct: The cDNAs encoding full-length of AdipoR1 or AdipoR2 were then sub-cloned into the mammalian expression vector pBEX and pcDNA3.1–Myc-His(+); His (C); Myc (C); made in house; host or cells: CHO cells
T1 sequence (Q96A54 1-375): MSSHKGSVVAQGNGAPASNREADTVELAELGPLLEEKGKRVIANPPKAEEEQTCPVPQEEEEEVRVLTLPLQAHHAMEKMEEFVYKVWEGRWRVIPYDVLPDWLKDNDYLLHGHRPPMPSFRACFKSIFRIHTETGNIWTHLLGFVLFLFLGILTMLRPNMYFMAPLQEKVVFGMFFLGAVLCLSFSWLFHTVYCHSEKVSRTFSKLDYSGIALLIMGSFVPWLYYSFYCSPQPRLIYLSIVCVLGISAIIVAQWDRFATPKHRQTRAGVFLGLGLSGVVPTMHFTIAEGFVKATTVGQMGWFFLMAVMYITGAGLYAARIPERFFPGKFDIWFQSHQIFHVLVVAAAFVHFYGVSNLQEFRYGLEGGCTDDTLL
Procedure: (§5) Unlabeled short peptide 3 was titrated against the FITC-labeled peptide and adiponectin receptor mixture. Plates were incubated at room temperature for up to 3 hours or 30 min at different temperatures. FP values were taken and IC50 values were calculated.
(§6) Master mixtures containing fluorescein-labeled probe 1 and adiponectin receptor (AdipoR1 or AdiopR2, 2 µM and probe 1 at 100 nM) in a reaction volume of 19 µl were prepared and loaded to plates. The library compounds (10 µM –0.078 µM, half dilutions) were prepared separately and transferred into the assay plates. The first and last columns of each plate were used as positive and negative control wells. Wells containing the drug only were used as controls to detect auto-fluorescence of the compounds in the total fluorescence assay. After subtraction of the background signal, data was processed and the IC50 values were determined by non-linear least square fitting using SigmaPlot 11.0.
(§7) Given that the present study is a screening study, peptide 3 was chosen as the positive control for cost-efficiency purposes.
(§8) To optimize the FP assay properly, it was necessary to assess the stability of the FP assay. The conditions for the FP assay were established by testing various parameters including incubation temperature, time, TF values, ΔmP values, and DMSO tolerance. […] In summary, the competitive FP binding assay conditions ideal for identifying adiponectin receptor agonists are: i) 2 µM adiponectin receptor, ii) 100 nM probe 1, iii) 5% final DMSO concentration (v/v), and iv) incubation for 30 min at 25°C before reading the plate.
(§9) A pilot screen against the natural product library of 10,000 compounds described above was performed at screening concentrations of 10 µM to 0.078 µM (half serial dilutions) in 5% DMSO (v/v). Controls present in each assay plate consisted of 5% DMSO (negative control) or peptide 3 (positive control).
(§10) We screened a library of 10,000 natural compounds for adiponectin agonists. […] 46 compounds that could generate IC50 curves were identified as initial hits.

[2] = tested on: PPARα phosphorylation (AdipoR2 signaling) in MCF-7 cells; test: Western blot of PPARα phosphorylation in MCF-7 cells; assay type: cell-based, human; settings: MCF-7 cells treated at IC50 concentration for 6 h
Procedure: as §1, §2, §3, §4

AdipoR2 = biological target: T2, AdipoR2 (UniProt Q86V24); test: Competitive FP assay, displacement of probe 1 from AdipoR2; assay type: binding, human; settings: 2 µM receptor, 100 nM probe 1, 30 min, 25°C
T2 sequence (Q86V24 1-386): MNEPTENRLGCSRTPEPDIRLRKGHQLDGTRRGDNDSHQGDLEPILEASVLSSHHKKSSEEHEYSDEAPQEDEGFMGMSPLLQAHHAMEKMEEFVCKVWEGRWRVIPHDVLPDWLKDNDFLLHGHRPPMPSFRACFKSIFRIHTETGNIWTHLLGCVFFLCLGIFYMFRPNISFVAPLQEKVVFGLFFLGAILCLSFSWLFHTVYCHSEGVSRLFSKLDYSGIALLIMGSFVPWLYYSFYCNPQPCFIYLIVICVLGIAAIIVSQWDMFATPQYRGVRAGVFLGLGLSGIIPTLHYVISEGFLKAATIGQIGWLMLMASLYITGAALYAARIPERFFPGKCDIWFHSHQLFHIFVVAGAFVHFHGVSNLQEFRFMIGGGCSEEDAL
Procedure: as §5, §6, §7, §8, §9, §10

[3] = primary screen, read-out: IC50 vs AdipoR1 (µM) Primary screen
[4] = validation, read-out: IC50 vs AdipoR1 (µM) Validated
[5] = primary screen, read-out: IC50 vs AdipoR2 (µM) Primary screen
[6] = validation, read-out: IC50 vs AdipoR2 (µM) Validated

Row | Structure (SMILES) | Effect on AMPK phosphorylation [1] | IC50 (AdipoR1; [3]) | IC50 (AdipoR1; [4]) | Effect on PPARα phosphorylation level [2] | IC50 (AdipoR2; [5]) | IC50 (AdipoR2; [6]) | Effect on PPARα phosphorylation level ([2]; listed as gramine)
1 | COc1ccc(C[C@H]2COC(=O)[C@@H]2Cc2ccc(O[C@@H]3O[C@H](CO)[C@@H](O)[C@H](O)[C@H]3O)c(OC)c2)cc1OC [Compound 1, Arctiin] | elevated | 1.2 µM | 1.3 ± 0.2 µM | inhibited | > 5 µM | > 5 µM | 
2 | COc1cc(C[C@H]2COC(=O)[C@@H]2Cc2ccc(O)c(OC)c2)ccc1O [Compound 3, Matairesinol] | elevated | 0.9 µM | 0.8 ± 0.2 µM | inhibited | > 5 µM | > 5 µM | 
3 | COc1cc2c(c(OC)c1OC)-c1c(cc(OC)c(OC)c1OC)C[C@H](C)[C@H](C)C2 [Compound 4, Deoxyschizandrin] | decreased | > 5 µM | > 5 µM | increased | 3.5 µM | 3.2 ± 0.7 µM | 
4 | C=C1C(=O)O[C@H]2[C@H]1CC/C(C)=C/CC[C@@]1(C)O[C@@H]21 [Compound 7, Parthenolide] | no effect | > 5 µM | > 5 µM | increased | 1.5 µM | 1.2 ± 0.1 µM | 
5 | CN(C)Cc1c[nH]c2ccccc12 [Compound 9, Gramine] | elevated | 4.5 µM | 4.2 ± 0.5 µM | inhibited | 3.6 µM | 3.2 ± 0.2 µM | decreased

Source: PMC3653934, “Identification of Adiponectin Receptor Agonist Utilizing a Fluorescence Polarization Based High Throughput Assay” (PLoS ONE, 2013)
